In patent US20170106027A1, “COMPOSITIONS AND METHODS OF IMPROVING PERFORMANCE AND INTESTINAL HEALTH OF POULTRY” (Kemin Industries, Inc., priority 2015, published 2017):
Where “and” joins values, the source holds several entries; their conditions need not be identical. Equal entries are not always repeated. Where two headings read alike, the source gives them in different places.

Legend:
E. acervulina [1] = type: in vivo, Cobb×Cobb 500 male broiler chicks; details: scored d35, scale 0-4
E. maxima [2] = type: in vivo, Cobb×Cobb 500 male broiler chicks; details: scored d35, scale 0-4
E. tenella [3] = type: in vivo, Cobb×Cobb 500 male broiler chicks; details: scored d35, scale 0-4
[4] = system: mixed Eimeria challenge (E. acervulina, E. maxima, E. tenella); design: species or system Cobb×Cobb 500 male broiler chicks; details: in vivo
E. acervulina [5] = type: in vivo, Cobb×Cobb 500 male broiler chicks; details: feces d35
E. maxima [6] = type: in vivo, Cobb×Cobb 500 male broiler chicks; details: feces d35
E. tenella [7] = type: in vivo, Cobb×Cobb 500 male broiler chicks; details: feces d35
[8] = system: Eimeria tenella sporozoites; experiment: In vitro MTT assay of Eimeria tenella sporozoite viability
C. perfringens = type: in vivo, Cobb×Cobb 500 male broiler chicks
[9] = Treatments In (kept in basal diet d28-35)
[10] = Treatments Out (removed from basal diet d28-35)

Compound: CC[C@@H](C(=O)[C@@H](C)[C@@H](O)[C@H](C)[C@@H]1O[C@@H]([C@@H](CC)C(=O)O)CC[C@@H]1C)[C@H]1O[C@]2(C=C[C@@H](O)[C@]3(CC[C@@](C)([C@H]4CC[C@](O)(CC)[C@H](C)O4)O3)O2)[C@H](C)C[C@@H]1C [BioCox ®, salinomycin]
- Average lesion score E. acervulina (E. acervulina [1]; [9]): 0.95
- Average lesion score E. acervulina (E. acervulina [1]; [10]): 1.50
- Average lesion score E. maxima (E. maxima [2]; [9]): 0.60
- Average lesion score E. maxima (E. maxima [2]; [10]): 0.78
- Average lesion score E. tenella (E. tenella [3]; [9]): 1.05
- Average lesion score E. tenella (E. tenella [3]; [10]): 1.00
- Average lesion score Overall [4]: 0.87 and 1.09
- Average oocysts per gram (OPG) in feces E. acervulina (E. acervulina [5]; Treatments In): 734 oocysts per gram
- Average oocysts per gram (OPG) in feces E. acervulina (E. acervulina [5]; Treatments Out): 19510 oocysts per gram
- Average oocysts per gram (OPG) in feces E. maxima (E. maxima [6]; Treatments In): 67 oocysts per gram
- Average oocysts per gram (OPG) in feces E. maxima (E. maxima [6]; Treatments Out): 0 oocysts per gram
- Average oocysts per gram (OPG) in feces E. tenella (E. tenella [7]; Treatments In): 1167 oocysts per gram
- Average oocysts per gram (OPG) in feces E. tenella (E. tenella [7]; Treatments Out): 1668 oocysts per gram

Compound: N=C(N/N=C/c1ccc(Cl)cc1)N/N=C/c1ccc(Cl)cc1 [Robenz ®, Robenidine]
- Average lesion score E. acervulina (E. acervulina [1]; [9]): 0.45
- Average lesion score E. acervulina (E. acervulina [1]; [10]): 1.38
- Average lesion score E. maxima (E. maxima [2]; [9]): 0.30
- Average lesion score E. maxima (E. maxima [2]; [10]): 0.68
- Average lesion score E. tenella (E. tenella [3]; [9]): 2.30
- Average lesion score E. tenella (E. tenella [3]; [10]): 1.00
- Average lesion score Overall [4]: 1.02
- Average oocysts per gram (OPG) in feces E. acervulina (E. acervulina [5]; Treatments In): 1301 oocysts per gram
- Average oocysts per gram (OPG) in feces E. acervulina (E. acervulina [5]; Treatments Out): 4869 oocysts per gram
- Average oocysts per gram (OPG) in feces E. maxima (E. maxima [6]; Treatments In): 0 oocysts per gram
- Average oocysts per gram (OPG) in feces E. maxima (E. maxima [6]; Treatments Out): 600 oocysts per gram
- Average oocysts per gram (OPG) in feces E. tenella (E. tenella [7]; Treatments In): 1034 oocysts per gram
- Average oocysts per gram (OPG) in feces E. tenella (E. tenella [7]; Treatments Out): 3468 oocysts per gram

Compound: O=C(OC[C@H]1O[C@@H](OC(=O)c2cc(O)c(O)c(OC(=O)c3cc(O)c(O)c(O)c3)c2)[C@H](OC(=O)c2cc(O)c(O)c(OC(=O)c3cc(O)c(O)c(O)c3)c2)[C@@H](OC(=O)c2cc(O)c(O)c(OC(=O)c3cc(O)c(O)c(O)c3)c2)[C@@H]1OC(=O)c1cc(O)c(O)c(OC(=O)c2cc(O)c(O)c(O)c2)c1)c1cc(O)c(O)c(OC(=O)c2cc(O)c(O)c(O)c2)c1 [tannic acid]
- additional decrease of sporozoite viability ([8]; 100 ppm compared to 50 ppm): 5%
- sporozoite viability (in words) ([8]; MTT assay, 50 and 100 ppm, salinomycin 60 ppm positive control): reductions were greater

Compound: bacitracin methylene disalicylate [BMD]
- mortality due to necrotic enteritis (in words) (C. perfringens; C. perfringens challenged birds): reduced
- FCR (in words) (C. perfringens; C. perfringens challenged broilers): improved FCR
- FCR (0-21 days) (C. perfringens; challenged with C. perfringens d19, 20, 21, FCR adjusted for mortality): 1.904
